Laboratory results reported in PMC9561422 (Clinical and Translational Medicine, 2022).
Entries after “also recorded” stand apart in the source; their conditions may differ. Like-named read-outs stand apart in the source and are kept apart here. Ends that are not written are not given here.

How the values were obtained:
liver homogenate = conditions: C57BL/6 mice
faeces homogenate = conditions: C57BL/6 mice
kidney homogenate = conditions: C57BL/6 mice
muscle homogenate = conditions: C57BL/6 mice
[1] = colon homogenate (incl. caecum); conditions: C57BL/6 mice
human myotubes = conditions: MTT dose-response curve
Description: (§1) Initially, MTT concentration‐response experiments in murine and human myoblasts as well as in myotubes were performed.
(§2) The 95% confidence interval of this curve is shown as grey area. IC10 is shown as a red vertical line.

C2C12 myotubes = conditions: Murine myotubes, MTT dose-response curve
Description: as §1, §2
(§3) Data are means ± SEM. […] (D–F) Data are means ± SEM. *p < .05; **p < .01; ***p < .001; two‐tailed Welch's t‐test. […] The exponent is read as -7; the minus sign and the digit are not certain. / Panel A: no compound label is printed beside the value. 'QSP' comes from the y-axis title of the same panel.

C2C12 myoblasts = conditions: Murine myoblasts, MTT dose-response curve
Description: as §1
(§4) Supplementary Figure 1. […] A) C2C12 myoblasts; B) human myoblasts. The x-axis indicates the different QSP concentrations, while the y-axis represents MTT reduction relative to placebo (placebo = 1.0). Squares (+ error bars) are means (+ SEM) of n=8-10 for each concentration, with the curve representing the best fitting 3-parameter logistic model around the means. The 95% confidence interval of this curve is shown as grey area. IC10 is shown as a red vertical line.

human myoblasts = system: human myoblasts
Description: as §1, §4

C. elegans = conditions: adult worms treated once with 1 µM; n = 341, 5 independent experiments
From the text: Data presented are means ± SEM. * P < 0.05; ** P < 0.01 and *** P < 0.001; Welch’s 2-sided t-test with placebo as reference.DACBSupplementary Figure 2

in vitro = conditions: human, Caco-2
From the text: as §3
(§5) [picture] Supplementary Figure 5. […] Data are means ± SEM.Supplementary Figure 5

CaCo‐2 monolayer = experiment: in vitro; conditions: CaCo-2 monolayer, apical-basal, 4°C, n = 6
From the text: as §3, §5

[2] = ex vivo
Description: The powdered medium is dissolved in 900 mL water while stirring. To this solution, 0.3790 g CaCl2×2H2O and 2.098 g NaHCO3 are subsequently added while stirring. NaOH or HCl was used to adjust to pH 7.4. This solution is then further diluted to 1000 mL using ultrapure water.
The blood was collected in a 1.5 mL Eppendorf tube after decapitating the mouse. The blood of the 4 mice was pooled and centrifuged for 10 min at 1000 g at 5 °C. The supernatant (serum) was transferred to a 500 µL Eppendorf and was immediately frozen and stored at -35 °C.
The liver (5.0070 g) was collected from four C57BL/6 mice after cervical dislocation. After cleaning and rinsing the organ using ice-cold KH buffer, the liver was cut in little pieces and transferred into a 50 mL tube to which 36 mL ice-cold KH buffer was added. The liver was then homogenized with mixer. After the larger particles were allowed to settle for about 30 minutes at 5 °C, approximately 25 mL of the middle layer was transferred into a 50 mL Falcon tube using a plastic pipette. After shaking the homogenate, the homogenate was dispensed into ten 2 mL Eppendorf tubes, and stored at -35 °C until use. The protein content of the homogenate was determined to be 18.24 mg/mL using the Pierce Modified Lowry Protein Assay method. Just before use, the homogenate was diluted to a protein concentration of 0.6 mg/mL (i.e. 300 µg / 500 µl) by the addition of 29.4 mL of KH buffer to 1000 µl of the homogenate.
The kidneys (1.4143 g) were collected from four C57BL/6 mice after cervical dislocation. After cleaning and rinsing the organs using ice-cold KH buffer, the kidneys were cut in little pieces and transferred into a 50 mL tube to which 24 mL ice-cold KH buffer was added. The kidneys were then homogenized with mixer. After the larger particles were allowed to settle for about 30 minutes at 5 °C, approximately 10 mL of the middle layer was transferred into a 50 mL Falcon tube using a plastic pipette. After shaking the homogenate, the homogenate was dispensed into five 2 mL Eppendorf tubes, and stored at -35 °C until use. The protein content of the homogenate was determined to be 5.92 mg/mL using the Pierce Modified Lowry Protein Assay method. Just before use, the homogenate was diluted to a protein concentration of 0.6 mg/mL (i.e. 300 µg / 500 µl) by the addition of 8.87 mL of KH buffer to 1000 µl of the homogenate.
The colons (incl. caecum) (1.4174 g) were collected from four C57BL/6 mice after cervical dislocation. After cleaning and rinsing the organs using ice-cold KH buffer, the colons were cut in little pieces and transferred into a 15 mL tube to which 5 mL ice-cold KH buffer was added. The colons were then homogenized with mixer. After the larger particles were allowed to settle for about 30 minutes at 5 °C, approximately 2 mL of the middle layer was dispensed into a 2 mL Eppendorf tube, and stored at -35 °C until use. The protein content of the homogenate was determined to be 2.35 mg/mL using the Pierce Modified Lowry Protein Assay method. Just before use, the homogenate was diluted to a protein concentration of 0.6 mg/mL (i.e. 300 µg / 500 µl) by the addition of 2.92 mL of KH buffer to 1000 µl of the homogenate.
Fresh faeces (0.1810 g) was collected from four C57BL/6 mice. The faeces was then cut in little pieces and transferred into a 15 mL tube to which 5 mL ice-cold KH buffer was added. […] The protein content of the homogenate was determined to be 1.48 mg/mL using the Pierce Modified Lowry Protein Assay method. […]

C2C12 myoblast = experiment: Viability assays other than MTT on C2C12 myoblasts; assay type: cell-based, murine; conditions: 1 µM; trypan blue, Hoechst/PI, LDH release, Bax/Bcl2, Apotox assay
[3] = germ-free mice inoculated with genetically modified E. coli continuously producing iAM373
From the text: as §3

SIFTLVA
fragment found (liver homogenate): FTLVA, major
fragment found (faeces homogenate): SIF, major
fragment found (kidney homogenate): SIFT, major; also recorded: SIFTL, major
fragment found (muscle homogenate): SIFTL, major
fragment found [1]: SIFTL, major

SIFTLVA [iAM373]
IC50 (human myotubes): 5.4 nM
IC50 (C2C12 myotubes): 13 nM
IC50 (C2C12 myoblasts): 61 nM
IC50 (human myoblasts; Human myoblasts, MTT dose-response curve): 180 nM
IC90 (human myoblasts; human myoblasts, MTT): 930 nM
effect on survival of C. elegans (C. elegans): without a clear effect on survival
Papp A→B (in vitro): 0.14 ×10⁻⁶ cm/s
apical‐basal permeability coefficient (Papp) (CaCo‐2 monolayer): 0.87×10^–7 cm/s
Main metabolite at approx. T1/2 ([2]; murine colon homogenate): SIFTL (180 min)
Main metabolite at approx. T1/2 ([2]; murine faeces homogenate): SIF (60 min)
Main metabolite at approx. T1/2 ([2]; murine kidney homogenate): SIFT (30 min) SIFTL (30 min)
Main metabolite at approx. T1/2 ([2]; murine liver homogenate): FTLVA (180 min)
Main metabolite at approx. T1/2 ([2]; murine muscle homogenate): SIFTL (180 min)
cytotoxic or cytostatic effect in viability assays other than MTT (C2C12 myoblast): did not show a clear cytotoxic or cytostatic effect
presence in blood circulation after oral gavage of iAM373-producing E. coli [3]: detected in the blood circulation
estimated plasma concentration in iAM373-positive older residents: 453 pM
